Patent US11999676B2, “Vesicular monoamine transporter-2 ligands and their use in the treatment of psychostimulant abuse” (priority 2016, dated 2024)

Legend:
VMAT2 = VMAT2 (Rattus norvegicus (Rat), UniProt Q01827); assay: [3H]Dopamine ([3H]DA) uptake assay, vesicular preparation; format: biochemical; details: [3H]DA uptake, rat; read-out: VMAT2 (rat) Inhibition: Mean Ki ± Standard Deviation
hERG channel = hERG channel (Homo sapiens (Human), UniProt Q12809); assay: [3H]Dofetilide binding assay, HEK-293 cell membrane preparation; details: [3H]dofetilide, HEK-293 cell membranes; read-out: hERG Binding: Mean Ki ± Standard Deviation
Method: [^3H]Dofetilide binding assays were conducted using commercially available HEK-293 cell membranes which stably express the hERG channel. Membranes were suspended in assay buffer (50 mM Tris, 10 mM KCl, 1 mM MgCl2, pH 7.4) prior to the experiment. […] Aliquots of the HEK-293 cell membrane suspension which contained 5 μg membrane protein were added to tubes containing assay buffer, 5 nM [^3H]dofetilide and a range of concentrations of analog (10 nM-100 μM). Nonspecific binding was determined in the presence of amitriptyline (1 mM). Samples were incubated for 1 hr. at 24° C., followed by rapid filtration. […] The affinity for the [^3H]dofetilide binding site on the hERG channel expressed in the HEK-293 cellular membrane was determined from the analog concentration response curves.

[1] = Microsomal stability assay, rat liver microsomes; details: for CLint scaled at 0.08 µM / half-life at 0.08 µM: female, Sprague-Dawley, rat, liver microsomes; for CLint scaled at 0.08 µM: pH 7.4, Microsomal stability assays: Clearance; for half-life at 0.08 µM: pH 7.4, Microsomal stability assays: Half-life
Method: (§1) Each plate holds triplicate samples of two controls (0.4 mM) and up to 14 compounds (0.08 mM) in rat and human liver microsomes. Aliquots of each well of the plate (175 μl of each well) were transferred from the master plate into 5 assay plates. For 0-hr time point, pre-cooled (4° C.) internal standard (437.5 μL, 2 μM caffeine in methanol) was added to the first plate before the reaction starts. NADPH regenerating system solution A (6.05 ml, Fisher Scientific, #NC9255727) was combined with NADPH regenerating system solution B (1.21 ml, Fisher Scientific, #NC9016235) in potassium phosphate buffer (15.8 ml, 0.1 M, pH 7.4, 37° C.). The resulting NADPH solution (43.8 μl) was added to each well of all the 96-well assay plates and mixed with pipette briefly making the final protein and compound concentrations respectively: 0.5 mg/ml, 0.08 μM (0.4 μM for controls). Plates were sealed, and all plates except the 0-hr plate were incubated at 37° C., shaken at a speed of 60 rpm. A single assay plate was tested at each time point: 0.5 hr, 1 hr, 2 hr, and 4 hr. At each time point, 437.5 μL of pre-cooled internal standard was added each well of the plate to quench the reaction. […] 120 μl supernatant was transferred to a 96-well plate, centrifuged again and analyzed by UPLC-MS (Waters Inc., Milford, MA). The compounds and internal standard were detected by selected ion recording (SIR).
(§2) The amount of material was measured as a ratio of peak area to the internal standard and graphed. Using the slope from the initial linear portion of this curve, the degradation rate constant is calculated using equation [1].

[2] = Microsomal stability assay, human liver microsomes; details: for CLint scaled at 0.08 µM: pH 7.4, Microsomal stability assays: Clearance
Method: as §1, §2

[3] = both, human, pooled liver microsomes

Chain of hERG channel (Q12809 whole entry): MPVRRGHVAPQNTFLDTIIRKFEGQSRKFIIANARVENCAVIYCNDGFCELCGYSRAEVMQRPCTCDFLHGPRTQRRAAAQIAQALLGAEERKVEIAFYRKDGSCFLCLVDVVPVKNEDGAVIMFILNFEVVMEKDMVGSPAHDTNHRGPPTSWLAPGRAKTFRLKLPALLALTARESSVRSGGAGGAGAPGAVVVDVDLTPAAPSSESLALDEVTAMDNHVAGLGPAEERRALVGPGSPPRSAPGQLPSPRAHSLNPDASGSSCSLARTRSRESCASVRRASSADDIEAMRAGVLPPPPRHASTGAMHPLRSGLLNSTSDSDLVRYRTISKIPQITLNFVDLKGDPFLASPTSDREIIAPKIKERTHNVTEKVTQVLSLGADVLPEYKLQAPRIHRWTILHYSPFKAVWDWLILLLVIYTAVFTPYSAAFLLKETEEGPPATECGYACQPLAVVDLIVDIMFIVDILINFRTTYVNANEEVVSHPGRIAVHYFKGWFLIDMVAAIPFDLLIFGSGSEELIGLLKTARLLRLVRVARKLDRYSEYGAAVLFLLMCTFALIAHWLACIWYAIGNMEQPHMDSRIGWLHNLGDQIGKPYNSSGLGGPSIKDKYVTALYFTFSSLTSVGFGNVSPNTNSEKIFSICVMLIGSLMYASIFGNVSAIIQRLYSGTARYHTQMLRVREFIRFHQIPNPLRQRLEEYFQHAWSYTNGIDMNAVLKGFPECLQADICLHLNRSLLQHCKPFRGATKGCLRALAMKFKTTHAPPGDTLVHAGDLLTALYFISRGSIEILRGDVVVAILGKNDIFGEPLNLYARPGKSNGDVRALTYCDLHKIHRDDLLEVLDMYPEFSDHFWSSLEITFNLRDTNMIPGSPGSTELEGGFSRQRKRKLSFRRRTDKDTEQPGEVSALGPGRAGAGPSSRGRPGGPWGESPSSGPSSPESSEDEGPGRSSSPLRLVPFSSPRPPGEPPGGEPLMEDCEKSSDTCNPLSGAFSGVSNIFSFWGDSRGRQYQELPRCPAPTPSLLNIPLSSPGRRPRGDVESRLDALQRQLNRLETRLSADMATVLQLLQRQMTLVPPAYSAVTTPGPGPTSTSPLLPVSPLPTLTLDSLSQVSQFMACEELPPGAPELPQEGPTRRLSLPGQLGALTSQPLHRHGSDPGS

Row | Structure (SMILES) | Ki (VMAT2) [nM] | Ki (hERG channel) [nM] | CLint scaled at 0.08 µM [1] [mL/min/kg] | half-life at 0.08 µM [1] [min] | Microsomal stability assays: Half-life [1] [min] | Microsomal stability assays: Clearance [1] [mL/min/kg] | CLint scaled at 0.08 µM [2, 3] [mL/min/kg] | half-life at 0.08 µM ([2]; both, human, pooled liver microsomes, pH 7.4, Microsomal stability assays: Half-life) [min] | Microsomal stability assays: Half-life [2] [min]
1 | CC(Cc1ccc(C(F)(F)F)cc1)NCCCc1ccc(N)cc1 (stereo not shown) [Compound 54] | 61.8 ± 1.69 | 908 ± 102 | – | – | – | – | – | – | –
2 | CC(Cc1ccc(F)cc1)NCCCc1ccc2[nH]ccc2c1 (stereo not shown) [Compound 55] | 27.4 ± 8.93 | 1550 ± 630 | > 400 | < 6 | – | – | – | – | –
3 | COc1ccc(CC(C)NCCCc2ccc(N)cc2)cc1 (stereo not shown) [Compound 57] | 68.9 ± 13.3 | 4250 ± 220 | – | – | – | – | – | – | –
4 | COc1ccc(CC(C)NCCCc2ccc([N+](=O)[O-])cc2)cc1 (stereo not shown) [Compound 58] | 16.6 ± 3.99 | 42.3 ± 8.21 | – | – | – | – | – | – | –
5 | CC(Cc1ccc(F)c(F)c1)NCCCc1ccc([N+](=O)[O-])cc1 (stereo not shown) [Compound 59] | 13.1 ± 2.87 | 55.6 ± 7.7 | – | – | – | – | – | – | –
6 | CC(Cc1ccc(F)c(F)c1)NCCCc1ccc(N)cc1 (stereo not shown) [Compound 60] | 48.3 ± 16.4 | 3140 ± 1550 | 30.7 | 60 | – | – | – | – | –
7 | CC(Cc1ccc(Cl)cc1)NCCCc1ccc(N)cc1 (stereo not shown) [Compound 62] | 31.6 ± 4.66 | 2380 ± 1120 | 83 | 36 | – | – | – | – | –
8 | CC(Cc1ccc(Cl)cc1)NCCCc1ccc([N+](=O)[O-])cc1 (stereo not shown) [Compound 64] | 16.4 ± 1.47 | 28.8 ± 13.7 | – | – | – | – | – | – | –
9 | CC(=O)Nc1ccc(CCCNC(C)Cc2ccc(F)cc2)cc1 (stereo not shown) [Compound 66] | 32.5 ± 3.52 | 10100 ± 3350 | 30.7 | 90 | – | – | – | – | –
10 | CC(Cc1ccc(NC=O)cc1)N(C=O)CCCc1ccc(F)cc1 (stereo not shown) [Compound 74] | 8.82 ± 2.05 | 831 ± 187 | – | – | – | – | – | – | –
11 | FCC(Cc1ccc(Br)cc1)NCCCc1ccc(F)cc1 (stereo not shown) [Compound 85] | 35.7 ± 7.32 | 1130 ± 711 | 335 | – | 6 | – | – | – | –
12 | CC(Cc1ccc(NC=O)cc1)NCCCc1ccc(F)cc1 (stereo not shown) [Compound 87] | 12.7 ± 2.85 | 738 ± 244 | 13.3 | 210 | – | – | – | – | –
13 | CC(Cc1ccc(NC=O)cc1)NCCCc1ccc(F)cc1 (stereo not shown) [Compound 90] | 12.7 ± 2.85 | 738 ± 244 | – | – | 114 | 24.9 | – | – | –
14 | CC(Cc1ccc(F)cc1)NCCCc1c[nH]c2ccccc12 (stereo not shown) [Compound 91] | 36.5 ± 5.56 | 2200 ± 124 | > 400 | < 6 | – | – | – | – | –
15 | CC(Cc1ccc(F)cc1)NCCCc1ccc(N)cc1 (stereo not shown) [Compound 94] | 84.6 ± 29.1 | 3980 ± 3410 | 119 | 24 | – | – | – | – | –
16 | CC(Cc1ccc(F)c(F)c1)NCCCc1ccncc1 (stereo not shown) [Compound 96] | 78.5 ± 15.8 | 4070 ± 734 | 96.8 | 30 | – | – | – | – | –
17 | FCC(Cc1ccccc1)NCCCc1ccccc1 (stereo not shown) [Compound 98] | 27.8 ± 5.29 | 17100 ± 12100 | > 400 | < 6 | – | – | – | – | –
18 | FCC(Cc1ccc(F)cc1)NCCCc1ccccc1 (stereo not shown) [Compound 100] | 51.2 ± 12 | 7390 ± 1360 | – | – | – | – | – | – | –
19 | FCC(Cc1ccccc1)NCCCc1ccc(F)cc1 (stereo not shown) [Compound 101] | 14.7 ± 9.28 | 4800 ± 940 | 253 | 12 | – | – | – | – | –
20 | CC(Cc1ccc(N)cc1)NCCCc1ccc(F)cc1 (stereo not shown) [Compound 110] | 19.2 ± 4.43 | 2590 ± 792 | < 10 | > 240 | – | – | – | – | –
21 | CC(Cc1ccc(N)cc1)NCCCc1ccc(F)cc1 (stereo not shown) [Compound 111] | 16.7 ± 3.34 | 2500 ± 435 | – | – | 144 | 19.5 | – | – | –
22 | CC(Cc1ccc([N+](=O)[O-])cc1)NCCCc1ccc(F)cc1 (stereo not shown) [Compound 117] | 7.08 ± 1.29 | 206 ± 137 | 148 | 18 | – | – | – | – | –
23 | CC(Cc1ccc([N+](=O)[O-])cc1)NCCCc1ccc(F)cc1 (stereo not shown) [Compound 119] | 9.85 ± 1.62 | 130 ± 25.6 | – | – | 24 | 112 | – | – | –
24 | CC(Cc1ccc([N+](=O)[O-])cc1)NCCCc1ccc(Cl)cc1 (stereo not shown) [Compound 125] | 8.58 ± 3.71 | 82 ± 12.7 | – | – | – | – | – | – | –
25 | CC(Cc1ccc(F)cc1)NCCCc1ccc(Br)cc1 (stereo not shown) [Compound 145] | 22.1 ± 6.5 | 506 ± 199 | 402 | – | 6 | – | – | – | –
26 | OCC(Cc1ccc(F)cc1)NCCCc1ccc(F)cc1 (stereo not shown) [Compound 147] | 30.1 ± 14.2 | 1150 ± 417 | – | – | – | – | – | – | –

Row | Structure (SMILES) | Ki (VMAT2) [nM] | Ki (hERG channel) [nM] | CLint scaled at 0.08 µM [1] [mL/min/kg] | half-life at 0.08 µM [1] [min] | Microsomal stability assays: Half-life [1] [min] | Microsomal stability assays: Clearance [1] [mL/min/kg] | CLint scaled at 0.08 µM [2, 3] [mL/min/kg] | half-life at 0.08 µM ([2]; both, human, pooled liver microsomes, pH 7.4, Microsomal stability assays: Half-life) [min] | Microsomal stability assays: Half-life [2] [min]
27 | FCC(Cc1ccc(F)cc1)NCCCc1ccc(Cl)cc1 (stereo not shown) [Compound 150] | 39.1 ± 7.97 | 2340 ± 1070 | 540 | – | 6 | – | – | – | –
28 | FCC(Cc1ccc(F)cc1)NCCCc1ccc(F)cc1 (stereo not shown) [Compound 152] | 27.3 ± 12.8 | 5700 ± 2970 | 298 | 12 | – | – | – | – | –
29 | CCOC(=O)c1ccc(CCCNC(C)Cc2ccc(F)cc2)cc1 (stereo not shown) [Compound 158] | 42.8 ± 8.89 | 1410 ± 275 | 120 | 24 | – | – | – | – | –
30 | CC(Cc1ccc(F)cc1)NCCCc1ccc([N+](=O)[O-])cc1 (stereo not shown) [Compound 160] | 14.3 ± 2.2 | 67.1 ± 14.7 | 119 | 24 | – | – | – | – | –
31 | CC(Cc1ccc(C(F)(F)F)cc1)NCCCc1ccncc1 (stereo not shown) [Compound 164] | 53.3 ± 6.5 | 1890 ± 639 | 83.3 | 36 | – | – | – | – | –
32 | CC(Cc1ccc(-c2cncnc2)cc1)NCCCc1ccc(Cl)cc1 (stereo not shown) [Compound 170] | 6.74 ± 2.59 | 199 ± 64.9 | 34.2 | 84 | – | – | – | – | –
33 | COc1ccc(CCCNC(C)Cc2ccncc2)cc1 (stereo not shown) [Compound 172] | 186 ± 127 | – | – | – | – | – | 42.9 | 30 | –
34 | CC(Cc1ccc(Br)cc1)NCCCc1ccncc1 (stereo not shown) [Compound 174] | 52.1 ± 35.9 | 880 ± 251 | 126 | 24 | – | – | – | – | –
35 | CC(Cc1ccc(F)cc1)NCCCc1ccncc1 (stereo not shown) [Compound 176] | 80.7 ± 21 | 3770 ± 2.04 | 71.8 | 42 | – | – | – | – | –
36 | CC(Cc1ccncc1)NCCCc1ccc(O)cc1 (stereo not shown) [Compound 178] | 124 ± 29.4 | 5070 ± 71.4 | 89.3 | 30 | – | – | – | – | –
37 | CC(Cc1ccc(Br)cc1)NCCCc1ccc(I)cc1 (stereo not shown) [Compound 180] | 48.4 ± 19.4 | 601 ± 195 | 290 | 12 | – | – | – | – | –
38 | CC(Cc1ccc(F)cc1)NCCCc1ccc(I)cc1 (stereo not shown) [Compound 182] | 52.7 ± 6.35 | 512 ± 126 | 375 | – | 6 | – | – | – | –
39 | CC(Cc1ccc(Br)cc1)NCCCc1ccc(Cl)cc1 (stereo not shown) [Compound 184] | 9.06 ± 1.61 | 196 ± 30.5 | 452 | – | 6 | – | – | – | –
40 | CC(Cc1ccc(-c2cccnc2)cc1)NCCCc1ccc(F)cc1 (stereo not shown) [Compound 192] | 11.9 ± 9.94 | 675 ± 127 | 77.2 | 36 | – | – | – | – | –
41 | CC(Cc1ccccc1)NCCCc1ccc(C(F)(F)F)cc1 (stereo not shown) [Compound 194] | 27.7 ± 7.81 | 791 ± 270 | 138 | 18 | – | – | – | – | –
42 | CC(Cc1ccc(-c2cncnc2)cc1)NCCCc1ccc(F)cc1 (stereo not shown) [Compound 196] | 7.12 ± 1.59 | 402 ± 72.2 | 14.7 | 192 | – | – | – | – | –
43 | CC(Cc1ccc(Br)cc1)NCCCc1ccc(F)cc1 (stereo not shown) [Compound 200] | 15.2 ± 8.86 | 242 ± 76 | 186 | 18 | – | – | – | – | –
44 | CC(Cc1ccccc1)NCCCc1ccc(-c2cncnc2)cc1 (stereo not shown) [Compound 202] | 119 ± 31.8 | – | – | – | – | – | 155 | – | 6
45 | CCC(Cc1ccccc1)NCCCc1ccc(O)cc1 (stereo not shown) [Compound 207] | 37.8 ± 6.59 | 2380 ± 517 | > 400 | < 6 | – | – | – | – | –
46 | CC(Cc1ccc(C(F)(F)F)cc1)NCCCc1ccc(O)cc1 (stereo not shown) [Compound 209] | 17.1 ± 6.86 | 252 ± 109 | – | – | – | – | – | – | –
47 | CC(Cc1ccccc1)NCCCc1ccc(-c2cccnc2)cc1 (stereo not shown) [Compound 210] | 55.4 ± 7.94 | 3120 ± 251 | 392 | – | 6 | – | – | – | –
48 | CC(Cc1ccccc1)NCCCc1ccc(I)cc1 (stereo not shown) [Compound 212] | 22.2 ± 2.21 | 642 ± 168 | – | – | 6 | 439 | – | – | –
49 | CC(Cc1ccccc1)NCCCc1ccc(I)cc1 (stereo not shown) [Compound 215] | 6.86 ± 1.81 | 3040 ± 1370 | – | 18 | – | 148 | – | – | –
50 | CC(Cc1ccccc1)NCCCc1ccc(S)cc1 (stereo not shown) [Compound 216] | 65.4 ± 23.4 | 4190 ± 1080 | 170 | 18 | – | – | – | – | –
51 | CC(Cc1ccccc1)NCCCc1ccc(N)cc1 (stereo not shown) [Compound 220] | 40.4 ± 4.72 | 5340 ± 5630 | 65.3 | 42 | – | – | – | – | –
52 | CC(Cc1ccccc1)NCCCc1ccc(O)cc1 (stereo not shown) [Compound 223] | 5.01 ± 1.72 | 2750 ± 1080 | – | – | – | – | – | – | –
